Where a name gives a salt, the structure may show the parent alone.
Columns and labels:
Salmonella typhi = test: Hydrolysis on Columbia agar with ferric ammonium citrate; format: cell-based; parameters: key to the marks not given beside the values; conditions: Salmonella typhi NCTC 8385
Description: (§1) The chromogenic β-D-ribofuranoside substrate was added to Columbia agar at a substrate concentration of 300 mg/l. Ferric ammonium citrate was included at 500 mg/l. All ingredients were autoclaved at 116° C. for 20 minutes to ensure sterilisation. Agar plates were then prepared in 90 mm petri dishes. The substrate caused a yellow colouration of the agar.
(§2) For each strain tested, a bacterial suspension was prepared in sterile deionised water at an inoculum of approximately 1.5×10^8 colony forming units per ml. This was achieved using a densitometer. 1 μl of each bacterial suspension was then inoculated onto each plate using a multipoint inoculator. Strains were inoculated in parallel onto Columbia agar containing ferric ammonium citrate with no substrate (negative control).
(§3) After 18 hours incubation, strains were examined visually for the presence of colour. Any strains producing a black colouration on substrate containing media but not on the negative control plates were deemed to be hydrolysing the substrate.

[1] = test system: Staphylococcus saprophyticus; test: as above; format: cell-based; parameters: key to the marks not given beside the values
Description: as §1, §2, §3

Vibrio harveyi = test: as above; format: cell-based; parameters: key to the marks not given beside the values; conditions: Vibrio harveyi NCTC 11346
Description: as §1, §2, §3

Salmonella alachia = test: as above; format: cell-based; parameters: key to the marks not given beside the values; conditions: Salmonella alachia SAX 60
Description: as §1, §2, §3

Vibrio metschnikovii = test: as above; format: cell-based; parameters: key to the marks not given beside the values; conditions: Vibrio metschnikovii NCTC 8443
Description: as §1, §2, §3

E. cloacae = test: as above; format: cell-based; parameters: key to the marks not given beside the values
Description: as §1, §2, §3

K. oxytoca = test: as above; format: cell-based; parameters: key to the marks not given beside the values
Description: as §1, §2, §3

Salmonella orthmarchen = test: as above; format: cell-based; parameters: key to the marks not given beside the values; conditions: Salmonella orthmarchen SAX 59
Description: as §1, §2, §3

Staphylococcus aureus = test: as above; format: cell-based; parameters: key to the marks not given beside the values
Description: as §1, §2, §3

Salmonella oranienburg = test: as above; format: cell-based; parameters: key to the marks not given beside the values; conditions: Salmonella oranienburg SAX 56
Description: as §1, §2, §3

Salmonella motevideo = test: as above; format: cell-based; parameters: key to the marks not given beside the values; conditions: Salmonella motevideo SAX 55
Description: as §1, §2, §3

Salmonella panama = test: as above; format: cell-based; parameters: key to the marks not given beside the values; conditions: Salmonella panama SAX 58
Description: as §1, §2, §3

Hafnia alvei = test: as above; format: cell-based; parameters: key to the marks not given beside the values
Description: as §1, §2, §3

Aeromonas sobria = test: as above; format: cell-based; parameters: key to the marks not given beside the values; conditions: Aeromonas sobria NCTC 11215
Description: as §1, §2, §3

Salmonella typhimurium = test: as above; format: cell-based; parameters: key to the marks not given beside the values; conditions: Salmonella typhimurium NCTC 74
Description: as §1, §2, §3

C. freundii = test: as above; format: cell-based; parameters: key to the marks not given beside the values
Description: as §1, §2, §3

Aeromonas hydrophila = test: as above; format: cell-based; parameters: key to the marks not given beside the values; conditions: Aeromonas hydrophila NCTC 8049
Description: as §1, §2, §3

Serratia marcescens = test: as above; format: cell-based; parameters: key to the marks not given beside the values; conditions: Serratia marcescens NCTC 10211
Description: as §1, §2, §3

Salmonella hadar = test: as above; format: cell-based; parameters: key to the marks not given beside the values; conditions: Salmonella hadar SAX 57
Description: as §1, §2, §3

E. coli 0157 = test: as above; format: cell-based; parameters: key to the marks not given beside the values
Description: as §1, §2, §3

C. diversus = test: as above; format: cell-based; parameters: key to the marks not given beside the values
Description: as §1, §2, §3

Shigella flexneri = test: as above; format: cell-based; parameters: key to the marks not given beside the values
Description: as §1, §2, §3

Acinetobacter lwoffii = test: Mixed culture on solid medium with substrate and ferric ion; format: cell-based; conditions: mixed culture with Escherichia coli
Description: (§4) The limitations of using a substrate which generates a diffusible end product after hydrolysis on a solid medium are known by those skilled in the art. […] For example a culture plate was prepared containing solid medium and the chromogenic enzyme substrate 3′,4′-dihydroxyflavone-4′-β-D-ribofuranoside along with ferric ion. A culture containing roughly equal numbers of Escherichia coli (β-D-ribofuranosidase positive) and Acinetobacter lwoffii (β-D-ribofuranosidase negative) was grown on the medium. […] The A. lwoffii colonies were colourless. It was possible to differentiate the two species even when the colonies were virtually coincident.

Escherichia coli = test: as above; format: cell-based; conditions: mixed culture with Acinetobacter lwoffii
Description: as §4

C. diphtheriae = test: Hydrolysis on Columbia agar with ferric ammonium citrate; format: cell-based, Corynebacterium diphtheriae
Description: as §1, §2, §3

Gram negative bacteria = test: Hydrolysis on Columbia agar with ferric ammonium citrate, strain panel; format: cell-based; conditions: 120 Gram negative bacteria tested
Description: (§5) The ribofuranoside derivative of dihydroxyflavone was tested with 194 distinct strains of bacteria. The choice of bacteria included a wide range many of which are important pathogens or commensals commonly isolated from pathological samples.
as §1, §2, §3

Gram-positive bacteria = test: as above; format: cell-based; conditions: Gram-positive bacteria tested
Description: as §5, §1, §2, §3

In the case of `O=c1cc(-c2ccc(OC3OC(CO)C(O)C3O)c(O)c2)oc2ccccc12` [DHF-riboside, 3′,4′-Dihydroxyflavone-4′-β-D-ribofuranoside sodium salt], the “β-Riboside (hydrolysis)” value (Salmonella typhi) is reported as “++”, the “β-Ribofuranoside (hydrolysis)” value ([1]; Reference No. 1) is reported as “++” and the “β-Ribofuranoside (hydrolysis)” value ([1]; Reference No. 2) is reported as “++”. For the same molecule, the “β-Ribofuranoside (hydrolysis)” value ([1]; Reference No. 3) was “++”, the “β-Ribofuranoside (hydrolysis)” value ([1]; Reference No. 4) was “++” and the “β-Ribofuranoside (hydrolysis)” value ([1]; Reference No. 5) was “++”. The “β-Riboside (hydrolysis)” value (Vibrio harveyi) was “++”, the “β-Riboside (hydrolysis)” value (Salmonella alachia) was “++” and the “β-Riboside (hydrolysis)” value (Vibrio metschnikovii) was “++”. The “β-Riboside (hydrolysis)” value (E. cloacae; E. cloacae ECL 1) was “++”, the “β-Riboside (hydrolysis)” value (E. cloacae; E. cloacae ECL 2) was “++” and the “β-Riboside (hydrolysis)” value (E. cloacae; E. cloacae ECL 3) was “++”. The “β-Riboside (hydrolysis)” value (E. cloacae; E. cloacae ECL 4) was “++”, the “β-Riboside (hydrolysis)” value (E. cloacae; E. cloacae NCTC 11936) was “++” and the “β-Riboside (hydrolysis)” value (K. oxytoca; K. oxytoca KOX 1) was “++”. The “β-Riboside (hydrolysis)” value (K. oxytoca; K. oxytoca KOX 2) was “++”, the “β-Riboside (hydrolysis)” value (Salmonella orthmarchen) was “++” and the “β-Ribofuranoside (hydrolysis)” value (Staphylococcus aureus; Reference No. 1) was “++”. For the same molecule, the “β-Ribofuranoside (hydrolysis)” value (Staphylococcus aureus; Reference No. 2) was “++”, the “β-Ribofuranoside (hydrolysis)” value (Staphylococcus aureus; Reference No. 3) was “++” and the “β-Ribofuranoside (hydrolysis)” value (Staphylococcus aureus; Reference No. 4) was “++”. For the same molecule, the “β-Ribofuranoside (hydrolysis)” value (Staphylococcus aureus; Reference No. 5) was “++”, the “β-Riboside (hydrolysis)” value (Salmonella oranienburg) was “++” and the “β-Riboside (hydrolysis)” value (Salmonella motevideo) was “++”. For the same molecule, the “β-Riboside (hydrolysis)” value (Salmonella panama) was “++”, the “β-Riboside (hydrolysis)” value (Hafnia alvei; Hafnia alvei HAL 2) was “++” and the “β-Riboside (hydrolysis)” value (Hafnia alvei; Hafnia alvei NCTC 8105) was “++”. For the same molecule, the “β-Riboside (hydrolysis)” value (Aeromonas sobria) was “++”, the “β-Riboside (hydrolysis)” value (Salmonella typhimurium) was “++” and the “β-Riboside (hydrolysis)” value (C. freundii; C. freundii CFR 1) was “++”. For the same molecule, the “β-Riboside (hydrolysis)” value (C. freundii; C. freundii CFR 2) was “++”, the “β-Riboside (hydrolysis)” value (C. freundii; C. freundii CFR 3) was “++” and the “β-Riboside (hydrolysis)” value (C. freundii; C. freundii CFR 4) was “++”. The “β-Riboside (hydrolysis)” value (C. freundii; C. freundii NCTC 9750) was “++”, the “β-Riboside (hydrolysis)” value (Aeromonas hydrophila) was “++” and the “β-Riboside (hydrolysis)” value (Serratia marcescens) was “++”. The “β-Riboside (hydrolysis)” value (Salmonella hadar) was “++”, the “β-Riboside (hydrolysis)” value (E. coli 0157; E. coli 0157 NCTC 12079) was “++” and the “β-Riboside (hydrolysis)” value (E. coli 0157; E. coli 0157 NCTC 12080) was “++”. For the same molecule, the “β-Riboside (hydrolysis)” value (E. coli 0157; E. coli 0157 NCTC 12900) was “++”, the “β-Riboside (hydrolysis)” value (E. coli 0157; E. coli 0157 NCTC 13125) was “++” and the “β-Riboside (hydrolysis)” value (E. coli 0157; E. coli 0157 NCTC 13126) was “++”. For the same molecule, the “β-Riboside (hydrolysis)” value (E. coli 0157; E. coli 0157 NCTC 13127) was “++”, the “β-Riboside (hydrolysis)” value (E. coli 0157; E. coli 0157 NCTC 13128) was “++” and the “β-Riboside (hydrolysis)” value (C. diversus; C. diversus CDI 1) was “++”. For the same molecule, the “β-Riboside (hydrolysis)” value (C. diversus; C. diversus CDI 2) was “++”, the “β-Riboside (hydrolysis)” value (Shigella flexneri; Shigella flexneri NCTC 8192) was “++” and the “β-Riboside (hydrolysis)” value (Shigella flexneri; Shigella flexneri NCTC 9723) was “++”. The “β-Riboside (hydrolysis)” value (Shigella flexneri; Shigella flexneri NCTC 9780) was “++”, the “Colour of A. lwoffii colonies” value (Acinetobacter lwoffii) was “colourless” and the “Colour of E. coli colonies” value (Escherichia coli) was “intense black colonies”. The “β-Ribofuranoside (hydrolysis)” value (C. diphtheriae; C. diphtheriae NCTC 3987) was “+”, the “β-Ribofuranoside (hydrolysis)” value (C. diphtheriae; C. diphtheriae NCTC 10356) was “++” and the “β-Ribofuranoside (hydrolysis)” value (C. diphtheriae; C. diphtheriae NCTC 11397) was “++”. For the same molecule, the “β-Ribofuranoside (hydrolysis)” value (C. diphtheriae; Corynebacterium diphtheria NEQAS) was “++”, the “Activity with the substrate” value (C. diphtheriae; Corynebacterium diphtheriae) was “active” and the “Share of strains that hydrolysed the substrate” value (Gram negative bacteria) was 68.3%. For the same molecule, the “Share of strains active with the substrate” value (Gram-positive bacteria) was 30.8%.
